From patent publication US20220362267A1, “CAPACITATIVE CALCIUM ENTRY INHIBITORS” (UNIVERSITÉ PARIS-SACLAY, priority 2019, published 2022)

Legend:
SOCE of Jurkat T cells = test: SOCE inhibition in thapsigargin-treated Jurkat cells (Indo-1 cytosolic calcium); type: cell-based; conditions: for Ki: SOCE, compound added 30 s before reintroduction of calcium; for concentration below which only SOCE is inhibited (no effect on SERCA and IP3R): selectivity versus SERCA and IP3R
Procedure: The Jurkat T lymphocyte line was mainly used for characterizing the effect of the molecules on SOCE. The Indo-1 ratiometric probe was used to visualize cytosolic calcium variations. For this, the cells in culture were centrifuged and then resuspended and incubated in PBS (Phosphate Buffered Saline) medium supplemented with 1 mg/ml of albumin and 4 μM of Indo-1-AM for 45 mim at ambient temperature and in the dark.
The SOCE phenomenon was evaluated conventionally. Jurkat cells were placed in calcium-free HBS medium and stimulated with 1 μM of thapsigargin (TG, arrow in FIG. 2A) for 600 s in order to allow calcium release from the ER and SOCC channel opening(=CRAC). The addition of 1 mM of CaCl2 to the medium allows massive calcium ion entry through the SOCCs and an increase in the concentration of cytosolic calcium ([Ca^2+]cyt).
The dose-response curves were established after addition of 2-APB or of an analog thereof 30 seconds before the reintroduction of calcium.

SERCA = test: 45Ca2+ loading (SERCA activity) in permeabilized L15 cells; type: biochemical; conditions: for Ki: permeabilized cells
Procedure: (§1) To test the selectivity of certain molecules on SOCE compared to IP3R and SERCA, the L15 line stably expressing type 1 IP3R was used. Briefly, the cells were permeabilized with saponin and incubated in the presence of ^45Ca^2+ in a medium containing ATP allowing SERCA activity and Ca' ion entry into the ER. The addition of TG makes it possible to induce release from the ER and therefore to measure the amount of Ca^2+ ions that have left the ER, which is itself directly linked to the SERCA activity. The addition of IP3 allows direct measurement of the amount of Ca' ions leaving the ER by IP3R opening.
(§2) The ^45Ca^2+ loading and IP3-dependent release measurements were carried out on permeabilized cells under one-way conditions.

IP3R = target: T1, IP3R (Mus musculus, UniProt P11881); test: IP3-dependent 45Ca2+ release in permeabilized L15 cells; type: biochemical
T1 construct: expressed in transfected cells; host or cells: L15 cell line, permeabilized with saponin
T1 sequence (P11881 whole entry): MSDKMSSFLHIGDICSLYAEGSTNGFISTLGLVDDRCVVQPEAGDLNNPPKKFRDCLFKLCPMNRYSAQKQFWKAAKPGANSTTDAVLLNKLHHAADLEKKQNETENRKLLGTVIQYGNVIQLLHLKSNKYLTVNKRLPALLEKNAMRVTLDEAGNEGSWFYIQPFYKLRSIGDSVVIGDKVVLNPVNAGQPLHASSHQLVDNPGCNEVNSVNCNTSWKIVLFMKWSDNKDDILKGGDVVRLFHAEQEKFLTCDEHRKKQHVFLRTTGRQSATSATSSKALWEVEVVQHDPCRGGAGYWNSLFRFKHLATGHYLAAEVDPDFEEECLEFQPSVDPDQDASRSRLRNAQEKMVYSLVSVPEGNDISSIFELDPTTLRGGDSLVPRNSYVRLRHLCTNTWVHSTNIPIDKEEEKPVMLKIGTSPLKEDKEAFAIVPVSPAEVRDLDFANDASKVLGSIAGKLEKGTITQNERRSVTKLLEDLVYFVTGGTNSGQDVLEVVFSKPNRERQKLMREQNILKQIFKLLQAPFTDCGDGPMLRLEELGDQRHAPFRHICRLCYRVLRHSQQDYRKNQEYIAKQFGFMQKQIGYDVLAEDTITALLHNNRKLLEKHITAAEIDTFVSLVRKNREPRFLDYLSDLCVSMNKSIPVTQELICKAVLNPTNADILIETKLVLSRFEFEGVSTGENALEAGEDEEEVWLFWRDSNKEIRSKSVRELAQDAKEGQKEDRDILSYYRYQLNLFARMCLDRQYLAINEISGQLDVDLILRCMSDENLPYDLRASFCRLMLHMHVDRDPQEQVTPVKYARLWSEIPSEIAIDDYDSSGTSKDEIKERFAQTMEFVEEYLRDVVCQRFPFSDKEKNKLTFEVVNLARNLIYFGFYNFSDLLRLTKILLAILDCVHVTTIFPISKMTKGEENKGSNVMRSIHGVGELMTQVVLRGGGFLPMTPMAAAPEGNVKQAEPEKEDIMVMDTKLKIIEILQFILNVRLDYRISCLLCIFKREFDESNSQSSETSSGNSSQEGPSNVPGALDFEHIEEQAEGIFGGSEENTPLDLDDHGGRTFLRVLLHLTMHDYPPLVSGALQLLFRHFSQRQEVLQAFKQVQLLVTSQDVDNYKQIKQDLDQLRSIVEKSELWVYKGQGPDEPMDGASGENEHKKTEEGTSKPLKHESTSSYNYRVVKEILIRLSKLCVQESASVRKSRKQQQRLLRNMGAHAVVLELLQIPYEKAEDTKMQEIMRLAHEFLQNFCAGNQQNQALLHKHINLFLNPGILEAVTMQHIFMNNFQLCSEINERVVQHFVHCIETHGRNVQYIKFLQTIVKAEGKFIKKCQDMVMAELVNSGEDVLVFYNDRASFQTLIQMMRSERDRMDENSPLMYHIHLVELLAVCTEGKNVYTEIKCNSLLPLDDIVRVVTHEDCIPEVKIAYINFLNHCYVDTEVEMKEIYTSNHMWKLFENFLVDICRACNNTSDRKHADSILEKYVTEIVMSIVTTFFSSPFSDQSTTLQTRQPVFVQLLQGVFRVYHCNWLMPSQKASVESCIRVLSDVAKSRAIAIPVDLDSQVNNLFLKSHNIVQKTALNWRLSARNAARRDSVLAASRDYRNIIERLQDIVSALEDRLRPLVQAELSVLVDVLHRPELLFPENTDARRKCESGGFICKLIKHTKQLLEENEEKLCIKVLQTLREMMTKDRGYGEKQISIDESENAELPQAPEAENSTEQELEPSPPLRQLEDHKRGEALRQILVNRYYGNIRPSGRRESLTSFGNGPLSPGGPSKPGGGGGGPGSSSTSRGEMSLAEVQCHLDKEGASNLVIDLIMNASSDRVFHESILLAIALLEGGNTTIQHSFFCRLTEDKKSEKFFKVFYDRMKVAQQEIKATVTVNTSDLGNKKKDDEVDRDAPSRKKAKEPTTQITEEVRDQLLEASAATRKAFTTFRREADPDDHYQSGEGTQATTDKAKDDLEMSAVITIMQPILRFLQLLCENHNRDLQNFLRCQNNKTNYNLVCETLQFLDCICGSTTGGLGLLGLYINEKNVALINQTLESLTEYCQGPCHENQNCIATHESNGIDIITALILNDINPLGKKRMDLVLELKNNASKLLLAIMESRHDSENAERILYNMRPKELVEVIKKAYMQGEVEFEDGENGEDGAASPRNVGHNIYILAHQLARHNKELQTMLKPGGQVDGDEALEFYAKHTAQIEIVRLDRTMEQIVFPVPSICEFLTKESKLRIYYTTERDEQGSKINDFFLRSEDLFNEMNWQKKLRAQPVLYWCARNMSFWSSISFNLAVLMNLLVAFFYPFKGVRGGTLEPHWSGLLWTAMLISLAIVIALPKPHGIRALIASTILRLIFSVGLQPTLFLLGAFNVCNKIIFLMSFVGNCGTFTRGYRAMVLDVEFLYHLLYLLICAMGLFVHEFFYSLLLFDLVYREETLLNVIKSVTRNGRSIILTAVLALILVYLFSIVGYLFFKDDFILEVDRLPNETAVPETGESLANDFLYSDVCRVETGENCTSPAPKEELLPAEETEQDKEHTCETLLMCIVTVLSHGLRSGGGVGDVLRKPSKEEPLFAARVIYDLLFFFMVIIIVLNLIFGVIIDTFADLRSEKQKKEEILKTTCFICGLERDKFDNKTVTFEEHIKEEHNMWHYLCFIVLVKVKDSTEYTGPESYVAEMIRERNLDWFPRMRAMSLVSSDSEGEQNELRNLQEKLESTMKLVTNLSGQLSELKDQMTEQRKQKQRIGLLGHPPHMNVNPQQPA
Procedure: as §1, §2

[1] = tested on: SOCE in MDA-MB231 cells (hormone-independent breast cancer cells); test: SOCE inhibition in MDA-MB231 cells; type: cell-based; conditions: FIG. 3B
Procedure: (§3) The Jurkat T lymphocyte line was mainly used for characterizing the effect of the molecules on SOCE. The Indo-1 ratiometric probe was used to visualize cytosolic calcium variations. For this, the cells in culture were centrifuged and then resuspended and incubated in PBS (Phosphate Buffered Saline) medium supplemented with 1 mg/ml of albumin and 4 μM of Indo-1-AM for 45 mim at ambient temperature and in the dark. The cells were then again centrifuged and resuspended in the HBS (Hepes-Buffered Saline) recording medium having the composition (in mM): 135 mM NaCl, 5.9 mM KCl, 1.2 mM MgCl2, 11.6 mM Hepes, 11.5 mM glucose, pH adjusted to 7.3 with NaOH. 0.5 to 1 million cells are then placed in the cuvette of a Varian Cary Eclipse spectrofluorimeter and the Indo-1 probe is excited at 360 nm, with emission of fluorescence at 405 and 480 nm. The ratio of fluorescence at 405 and 480 nm is directly proportional to the [Ca^2+]cyt.
(§4) The lines of monocyte origin U937, B lymphocyte origin (DG75) and breast cancer origin (MDA-MB231) were also used with the same protocol.

[2] = tested on: caspase-3 activity of Jurkat cells; test: Caspase-3 activity in Jurkat cells (Ac-DEVD-AFC substrate); type: cell-based
Procedure: The caspase-3 activity is measured with a fluorescent kit using the Ac-DEVD-AFC substrate. The Jurkat cells are incubated for 24 h with PHA in the presence or absence of certain molecules. The cells are then lyzed with RIPA medium, and the amounts of proteins are then measured with a commercial kit (Biorad). The cell lysates are then diluted in the following reaction medium: 200 mM Hepes, pH 7.4, 1 mM EDTA, 20% sucrose and 20 mM dithiothreitol, then incubated with 20 μM of the fluorogenic substrate for 45 min […] at 37° C. The appearance of the fluorescent AFC product is measured by spectrofluorimetry (excitation at 405 nm, emission at 505 nm).
(§5) The caspase-3 activity was then evaluated by means of an Ac-DEVD-AFC fluorogenic substrate, and apoptosis was evaluated by means of a TUNEL assay.

[3] = tested on: PHA-stimulated Jurkat cells; test: TUNEL assay of DNA fragmentation in PHA-stimulated Jurkat cells; type: cell-based; conditions: concentrations greater than 10 nM
Procedure: The Roche TUNEL kit was used to observe the nuclear DNA fragmentation and therefore cell apoptosis.
as §5

[4] = tested on: SOCE in DG75 cells (B lymphocytes); test: SOCE inhibition in DG75 cells; type: cell-based
Procedure: as §3, §4

Jurkat cells = test: Cell death of Jurkat cells; type: cell-based
[5] = tested on: Mn2+ influx via the SOCCs; test: Mn2+ quenching of indo-1 in TG-treated Jurkat cells; type: cell-based; conditions: 1 μM
Procedure: In order to determine whether compound P11 has an action on SOCE and not on calcium efflux mechanisms, a quenching experiment with Mn^2+ was carried out by means of the indo-1 molecule. The Mn^2+ ions enter the cells via the SOCCs, but cannot be pumped into the extracellular membrane by the plasma membrane calcium-dependent ATPases (plasma membrane Ca^2+ ATPases, or PMCA) or the sodium/calcium exchanger (Na^+/Ca^2+ exchanger, or NCX) or sent back into the lumen of the ER by the sarcoplasmic-endoplasmic reticulum Ca^2+ ATPases (or SERCAs). Once in the cell, Mn^2+ binds to indo-1 and quenches its fluorescence measured at 430 nm. An increase in the amplitude of the Mn^2+ influx is therefore associated with an increase in the indo-1 quenching rate, and vice versa.
After 10 minutes of treatment with TG in order to open the SOCCs, 100 μM of MnCl2 were added. A degree of quenching of −0.89±0.05% Fo/s was observed (FIG. 3A). In the presence of increasing concentrations of P11 added 30 seconds before the addition of Mn^2+ ions, the degree of quenching decreased and reached a blocking of approximately 90% at 1 μM (−0.09±0.01, FIG. 3A).

[6] = tested on: PHA-stimulated Jurkat cells; test: IL-2 synthesis by PHA-stimulated Jurkat cells (Elisa); type: cell-based
Procedure: In order to measure the interleukin-2 (IL-2) synthesis in 24 h after stimulation with 10 μg/ml of phytohemagglutinin (PHA) in the presence or absence of certain molecules, the Jurkat cells are centrifuged and the supernatant containing the IL-2 is collected. The 11-2 concentration is measured by Elisa (R&D systems kit).
The concentration of neosynthesized IL-2 was measured in the culture medium of phytohemagglutinin (PHA)-stimulated Jurkat cells after 24 h, in the presence of increasing concentrations of compound P11. […] Conversely, stimulation with PHA allows the detection of approximately 100 pg/ml of IL-2 (103 ±4 pg/ml, FIG. 5A). The addition of increasing concentrations of P11 at the same time as the stimulation by PHA leads to a gradual decrease in IL-2 synthesis to 26±6 pg/ml for 1 μM of P11 (-74%, FIG. 5B).

[7] = tested on: SOCE in U937 cells (monocytes); test: SOCE inhibition in U937 cells; type: cell-based; conditions: FIG. 3B
Procedure: as §3, §4

Orai1-SOCE in leukocytes = conditions: cited from earlier work
[8] = PHA, increasing amounts of P11, FIG. 5C

SMILES: CC(C)(C)c1ccc(B(OCCN)c2ccc(C(C)(C)C)cc2)cc1 [Compound P8]
- Ki (SOCE of Jurkat T cells; Jurkat cells): 350 ± 40 nM

SMILES: CC(C)(C)c1ccc(B(OCCN)c2ccc(C(C)(C)C)cc2)cc1 [Compound P9]
- Ki (SERCA): 6 ± 0.3 µM
- Ki (SOCE of Jurkat T cells; Jurkat cells): 641 ± 103 nM
- concentration below which only SOCE is inhibited (no effect on SERCA and IP3R) (SOCE of Jurkat T cells): Below 3 μM
- inhibition of IP3R activity (in words) (IP3R; FIG. 4): did not significantly inhibit

SMILES: NCCOB(c1ccc(F)cc1)c1ccc(F)cc1 [Compound P14]
- Ki (SOCE of Jurkat T cells; Jurkat cells): 5400 ± 300 nM

SMILES: NCCOB(c1ccc(Cl)cc1)c1ccc(Cl)cc1 [Compound P13]
- Ki (SOCE of Jurkat T cells; Jurkat cells): 1840 ± 100 nM

SMILES: Cc1ccc(B(OCCN)c2ccc(C)cc2)cc1 [Compound P3]
- Ki (SOCE of Jurkat T cells; Jurkat cells): 3500 ± 600 nM

SMILES: COc1cccc(B(OCCN)c2cccc(OC)c2)c1 [Compound P4]
- maximum inhibition of SOCE (SOCE of Jurkat T cells; Jurkat cells): 80%
- Ki (SOCE of Jurkat T cells; Jurkat cells): 75000 ± 21000 nM

SMILES: Cc1ccc(B(OCCN)c2ccc(C)c(Cl)c2)cc1Cl [Compound P15]
- Ki (SOCE of Jurkat T cells; Jurkat cells): 294 ± 74 nM

SMILES: Cc1cccc(B(OCCN)c2cccc(C)c2)c1 [Compound P5]
- Ki (SOCE of Jurkat T cells; Jurkat cells): 2100 ± 600 nM

SMILES: NCCOB(c1ccc(-c2ccccc2)cc1)c1ccc(-c2ccccc2)cc1 [Compound P11, 2-(dibiphenyl-4-ylboryloxy)ethamine]
- ratio Ki SERCA versus Ki SOCE (SERCA; SERCA 7.4 μM vs SOCE 75 nM): 100 times
- inhibition of SERCA (SERCA; concentration greater than 30 μM): 89%
- Ki (SERCA): 7.4 µM
- Ki [1]: 50 ± 5 nM
- caspase-3 activity ([2]; 1 μM with PHA, 24 h): 3332±113 AU
- increase of caspase-3 activity (factor) ([2]; with PHA, from 10 nM, maximum effect): 3
- caspase-3 activity, compound alone ([2]; without PHA, up to 1 μM): does not induce an increase in caspase-3 activity
- cells containing fragmented DNA [3]: 17.9±1.2%
- fold increase in number of cells containing fragmented DNA [3]: 4.5 fold
- Ki (SOCE of Jurkat T cells; Jurkat cells): 75 ± 21 nM
- concentration below which only SOCE is inhibited (no effect on SERCA and IP3R) (SOCE of Jurkat T cells): less than 1 μM
- Ki ([4]; DG75 cells (B lymphocytes), FIG. 3B): 32 ± 2 nM
- concentration at which total inhibition of SOCE is achieved ([4]; FIG. 3B (other cell types: DG75, U937, MDA-MB231)): 100 nM
- inhibition at 100 µM (IP3R; 100 μM): 29 ± 9%
- percentage of dead cells (Jurkat cells; 1 μM combined with PHA): 33.2±1.3%
- toxic effect on the cells, compound alone (Jurkat cells; without PHA): did not exhibit any toxic effect
- blocking of Mn2+ quenching [5]: approximately 90%
- degree of indo-1 quenching by Mn2+ ([5]; added 30 s before 100 μM MnCl2, after 10 min TG): −0.09±0.01 % Fo/s
- IL-2 concentration in culture medium ([6]; 1 μM with 10 μg/ml PHA, 24 h): 26 ± 6 pg/mL
- change in IL-2 synthesis ([6]; 1 μM with PHA, 24 h): -74%
- IL-2 synthesized by the remaining living cells [6, 8]: 39.2 ± 8.6 pg/mL
- decrease of IL-2 synthesis capacity of remaining living cells [6, 8]: approximately 63%
- Ki [7]: 40 ± 5 nM

SMILES: COc1ccc(B(OCCN)c2ccc(OC)cc2)cc1 [Compound P2]
- Ki (SOCE of Jurkat T cells; Jurkat cells): 3500 ± 650 nM

SMILES: NCCOB(c1ccccc1)c1ccccc1 [Compound 2-APB, 2-Aminoethoxydiphenyl borate, reference compound]
- effect on calcium entry at 5 μM (SOCE of Jurkat T cells; Jurkat cells, 5 μM, FIG. 2A): high potentiation of calcium entry
- effect on calcium entry at 50 μM (SOCE of Jurkat T cells; Jurkat cells, 50 μM, FIG. 2A): virtually total inhibition
- concentration at which Orai1-SOCE is inhibited (Orai1-SOCE in leukocytes): greater than 30 μM

SMILES: Cc1ccc(B(OCCN)c2ccc(C)c(C)c2)cc1C [Compound P7]
- Ki (SOCE of Jurkat T cells; Jurkat cells): 751 ± 97 nM
